In article PMC9415638, “Discovery of novel thiazolyl-pyrazolines as dual EGFR and VEGFR-2 inhibitors endowed with in vitro antitumor activity towards non-small lung cancer” (Journal of Enzyme Inhibition and Medicinal Chemistry, 2022):
Read-outs that look alike come from different tables or passages of the source.

Experiments:
[1] = tested on: WI-38 human lung fibroblast cells; assay: MTT cytotoxicity assay on normal cells; type: cell-based; conditions: Homo sapiens, WI-38; normal lung fibroblasts, MTT, 24 h, n = 3; read-out: IC50 (µM) ± SEM WI-38
Protocol: All chemicals used in this study were analytical or cell-culture grade.
Cytotoxicity was measured using the MTT assay. […] The medium was aspirated and 150 μL DMSO was added to solubilise MTT formazan crystals. The plates were then shaken, and the optical density was determined at 570 nm using an ELISA plate reader (Model 550, Bio-Rad, Hercules, CA). At least three independent experiments were performed.

H441 lung cancer cells = assay: Anti-proliferative MTT assay; conditions: for inhibition at 10 µM: read-out: % Growth inhibition ± SEM H441
EGFR = EGFR (Homo sapiens, UniProt P00533); assay: EGFR kinase assay (PGT-coated 96-well plates); type: biochemical; conditions: read-out: IC50 (nM) ± SEM EGFR
Sequence of EGFR (P00533 25-1210): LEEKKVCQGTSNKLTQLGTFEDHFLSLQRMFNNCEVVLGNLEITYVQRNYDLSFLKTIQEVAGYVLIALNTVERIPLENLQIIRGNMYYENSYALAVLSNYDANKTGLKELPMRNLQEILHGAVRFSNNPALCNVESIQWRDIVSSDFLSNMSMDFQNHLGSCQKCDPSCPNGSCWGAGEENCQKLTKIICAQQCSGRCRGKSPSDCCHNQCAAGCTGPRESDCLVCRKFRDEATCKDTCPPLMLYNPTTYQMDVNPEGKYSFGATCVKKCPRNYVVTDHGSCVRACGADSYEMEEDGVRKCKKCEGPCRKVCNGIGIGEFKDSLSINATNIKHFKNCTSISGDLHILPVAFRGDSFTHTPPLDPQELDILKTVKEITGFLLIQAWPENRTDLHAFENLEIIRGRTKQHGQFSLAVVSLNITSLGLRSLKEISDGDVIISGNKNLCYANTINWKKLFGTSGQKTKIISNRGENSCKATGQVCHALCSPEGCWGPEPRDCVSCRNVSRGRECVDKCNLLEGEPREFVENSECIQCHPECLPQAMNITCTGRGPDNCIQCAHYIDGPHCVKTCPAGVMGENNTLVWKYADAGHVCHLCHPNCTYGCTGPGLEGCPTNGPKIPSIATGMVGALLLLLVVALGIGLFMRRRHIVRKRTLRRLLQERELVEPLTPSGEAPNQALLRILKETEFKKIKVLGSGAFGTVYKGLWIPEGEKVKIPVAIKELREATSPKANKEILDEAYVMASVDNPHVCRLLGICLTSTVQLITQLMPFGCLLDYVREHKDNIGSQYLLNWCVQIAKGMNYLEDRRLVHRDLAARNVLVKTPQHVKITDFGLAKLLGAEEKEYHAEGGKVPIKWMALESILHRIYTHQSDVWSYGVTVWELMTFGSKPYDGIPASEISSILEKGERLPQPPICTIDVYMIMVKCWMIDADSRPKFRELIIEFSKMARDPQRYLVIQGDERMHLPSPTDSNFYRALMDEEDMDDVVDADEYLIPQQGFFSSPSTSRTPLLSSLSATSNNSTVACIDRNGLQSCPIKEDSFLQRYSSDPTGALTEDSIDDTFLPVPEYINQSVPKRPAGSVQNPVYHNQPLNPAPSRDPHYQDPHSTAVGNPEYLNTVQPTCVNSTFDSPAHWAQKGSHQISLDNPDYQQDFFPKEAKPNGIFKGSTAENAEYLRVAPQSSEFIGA
Protocol: (§1) The EGFR kinase assay was carried out in 96-well plates coated with PGT (poly l-glutamic acid l-tyrosine, 4:1, Sigma Aldrich, St. Louis, MO) as previously described. IC50 values were calculated using GraphPad Prism 5. Each experiment was carried out at least three times. The VEGFR-2 kinase assay was carried out in 96-well streptavidin coated plate using recombinant human VEGFR-2/KDR ELISA kit according to manufacturer’s instructions.

[2] = tested on: MCF-7 breast cancer cells; assay: Anti-proliferative MTT assay; type: cell-based; conditions: Homo sapiens, MCF7, 24 h, read-out: % Growth inhibition ± SEM MCF-7
Protocol: (§2) To evaluate the anti-proliferative activity of the synthesised thiazolyl-pyrazoline derivatives (7a–7d, 10a–10d, and 13a–13f), a preliminary in vitro one dose (10 µM) anticancer assay was performed. Nine cell lines derived from five tumour subpanels were examined; leukaemia (K562 and KG-1a), breast (MCF-7, BT-549 and HCC70), lung (A549 and H441), colon (HCT116) and liver (HepG2) cancer cell lines. The compounds were added at a single concentration (10 µM) and the cultures were incubated for 24 h, then the per cent growth inhibition (%GI) was calculated.
(§3) Human leukaemia (K562 and KG-1a), breast (MCF-7, BT-549 and HCC70), lung (A549, H441, NCI-H1650 and NCI-H1975), colon (HCT116), liver (HepG2) cancer cell lines and WI-38 human lung fibroblast cell line were obtained from the American Type Culture Collection (ATCC; Manassas, VA) and were cultured in their suitable media containing 10% foetal bovine serum (FBS; Sigma-Aldrich) in a humidified atmosphere with 5% CO2 at 37 °C. Gefitinib and vandetanib were purchased from Sigma-Aldrich. All chemicals used in this study were analytical or cell-culture grade.
(§4) Cytotoxicity was measured using the MTT assay. Human leukaemia (K562 and KG-1a), breast (MCF-7, BT-549 and HCC70), lung (A549, H441, NCI-H1650 and NCI-H1975), colon (HCT116), liver (HepG2) cancer cell lines and WI-38 human lung fibroblast cell line were plated at a density of 1 × 10^4 cells per well in 96-well plates overnight and then treated with the compounds. After 24 h treatment, 20 μL of MTT solution (2 mg/mL in phosphate-buffered saline [PBS]) was added to each well and the cells were cultured for another 4 h at 37 °C. The medium was aspirated and 150 μL DMSO was added to solubilise MTT formazan crystals. The plates were then shaken, and the optical density was determined at 570 nm using an ELISA plate reader (Model 550, Bio-Rad, Hercules, CA). At least three independent experiments were performed. The IC50 values were calculated using GraphPad Prism 5 (Version 5.01, GraphPad Software, San Diego, CA).

K562 leukaemia cells = assay: Anti-proliferative MTT assay; type: cell-based; conditions: Homo sapiens, 24 h, read-out: % Growth inhibition ± SEM K562
Protocol: as §2, §3, §4

[3] = tested on: BT-549 breast cancer cells; assay: Anti-proliferative MTT assay; type: cell-based; conditions: Homo sapiens, 24 h, read-out: % Growth inhibition ± SEM BT-549
Protocol: as §2, §3, §4

HepG2 liver cancer cells = assay: Anti-proliferative MTT assay; type: cell-based; conditions: Homo sapiens, 24 h, read-out: % Growth inhibition ± SEM HepG2
Protocol: as §2, §3, §4

[4] = tested on: HCC70 breast cancer cells; assay: Anti-proliferative MTT assay; type: cell-based; conditions: Homo sapiens, 24 h, read-out: % Growth inhibition ± SEM HCC70
Protocol: as §2, §3, §4

KG-1a leukaemia cells = assay: Anti-proliferative MTT assay; type: cell-based; conditions: Homo sapiens, 24 h, read-out: % Growth inhibition ± SEM KG-1a
Protocol: as §2, §3, §4

[5] = tested on: HCT116 colon cancer cells; assay: Anti-proliferative MTT assay; type: cell-based; conditions: Homo sapiens, HCT-116, 24 h, read-out: % Growth inhibition ± SEM HCT116
Protocol: as §2, §3, §4

[6] = biological target: T1, recombinant human VEGFR-2/KDR (Homo sapiens, UniProt P35968); assay: VEGFR-2 kinase assay (VEGFR-2/KDR ELISA kit); type: biochemical; conditions: read-out: IC50 (nM) ± SEM VEGFR-2
T1 construct: purchased
T1 sequence (P35968 20-1356): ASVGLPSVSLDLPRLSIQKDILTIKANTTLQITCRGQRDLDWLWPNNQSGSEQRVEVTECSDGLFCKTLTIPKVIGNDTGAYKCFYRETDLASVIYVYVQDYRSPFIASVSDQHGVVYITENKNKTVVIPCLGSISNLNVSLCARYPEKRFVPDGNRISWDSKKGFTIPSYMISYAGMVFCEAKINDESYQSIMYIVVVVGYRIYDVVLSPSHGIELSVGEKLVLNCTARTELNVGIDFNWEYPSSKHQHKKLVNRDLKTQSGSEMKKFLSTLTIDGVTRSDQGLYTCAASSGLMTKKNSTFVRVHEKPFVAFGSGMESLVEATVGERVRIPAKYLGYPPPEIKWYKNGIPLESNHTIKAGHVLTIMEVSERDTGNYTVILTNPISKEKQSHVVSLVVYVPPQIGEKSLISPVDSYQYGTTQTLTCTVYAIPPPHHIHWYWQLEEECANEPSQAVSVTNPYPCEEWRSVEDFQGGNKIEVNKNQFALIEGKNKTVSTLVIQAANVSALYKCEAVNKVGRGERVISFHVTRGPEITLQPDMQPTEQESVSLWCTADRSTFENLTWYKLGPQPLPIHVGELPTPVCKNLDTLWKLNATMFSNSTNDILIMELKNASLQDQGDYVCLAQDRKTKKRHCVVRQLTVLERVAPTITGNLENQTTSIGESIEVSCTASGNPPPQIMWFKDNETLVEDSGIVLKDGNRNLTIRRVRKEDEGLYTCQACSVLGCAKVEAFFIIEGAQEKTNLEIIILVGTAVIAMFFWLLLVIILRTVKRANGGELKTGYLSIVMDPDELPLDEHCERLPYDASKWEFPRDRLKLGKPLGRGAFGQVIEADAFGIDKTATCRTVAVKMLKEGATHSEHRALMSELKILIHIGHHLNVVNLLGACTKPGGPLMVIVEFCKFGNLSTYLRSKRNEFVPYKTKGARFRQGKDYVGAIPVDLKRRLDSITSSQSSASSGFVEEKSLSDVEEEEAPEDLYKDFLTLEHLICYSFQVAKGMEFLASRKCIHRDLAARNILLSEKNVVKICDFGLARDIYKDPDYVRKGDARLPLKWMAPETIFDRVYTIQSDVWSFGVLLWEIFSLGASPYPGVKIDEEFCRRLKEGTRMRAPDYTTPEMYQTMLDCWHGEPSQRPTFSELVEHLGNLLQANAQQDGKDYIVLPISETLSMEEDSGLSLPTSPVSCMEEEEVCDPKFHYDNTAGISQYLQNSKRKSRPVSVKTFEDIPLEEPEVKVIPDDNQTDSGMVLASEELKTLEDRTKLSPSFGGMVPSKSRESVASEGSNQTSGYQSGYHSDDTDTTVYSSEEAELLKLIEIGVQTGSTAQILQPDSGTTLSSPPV
Protocol: as §1

A549 lung cancer cells = assay: Anti-proliferative MTT assay; conditions: Homo sapiens, A549, 24 h; for inhibition at 10 µM: read-out: % Growth inhibition ± SEM A549; for IC50: read-out: IC50 (µM) ± SEM A549
[7] = Homo sapiens, NCI-H441, 24 h, read-out: IC50 (µM) ± SEM H441, MTT, 24 h, n = 3

Row | IC50 (H441 lung cancer cells; [7]) | melting point | IC50 (EGFR) | IC50 [6] | IC50 (A549 lung cancer cells) | IC50 (H441 lung cancer cells; read-out: IC50 (µM) ± SEM H441, MTT, 24 h, n = 3) | Compound | IC50 [1] | inhibition at 10 µM (H441 lung cancer cells; Homo sapiens, NCI-H441, 24 h) | inhibition at 10 µM [2] | inhibition at 10 µM (K562 leukaemia cells) | inhibition at 10 µM [3] | inhibition at 10 µM (HepG2 liver cancer cells) | inhibition at 10 µM [4] | inhibition at 10 µM (KG-1a leukaemia cells) | inhibition at 10 µM [5] | inhibition at 10 µM (A549 lung cancer cells)
1 | 38.4 ± 2.3 µM | 72 to 75 °C | 145 ± 2 nM | 125 ± 1.4 nM | 22.5 ± 1.2 µM |  | COc1ccc(C2CC(c3ccc(Cl)cc3Cl)=NN2c2nc(-c3ccccc3)cs2)cc1 (stereo not shown) [Compound 7a, 2-(3-(2,4-Dichlorophenyl)-5-(4-methoxyphenyl)-4,5-dihydro-1H-pyrazol-1-yl)-4-phenylthiazole] | 88.2 ± 4.2 µM | 36.1 ± 2.1% | 0.07% | 14.2 ± 2.1% | 26.4 ± 3.6% | 0.5% | 27.3 ± 1% | 18.4 ± 1.3% | 0.5 ± 0.1% | 34.9 ± 4.3%
2 | 26.5 ± 1.1 µM | 140 to 141 °C | 114.2 ± 0.4 nM | 195 ± 4.6 nM | 12 ± 0.4 µM |  | COc1ccc(C2CC(c3ccc(Cl)cc3Cl)=NN2c2nc(-c3ccc(Cl)cc3)cs2)cc1 (stereo not shown) [Compound 7b, 4-(4-Chlorophenyl)-2-(3-(2,4-dichlorophenyl)-5-(4-methoxyphenyl)-4,5-dihydro-1H-pyrazol-1-yl)thiazole] | 60.6 ± 3.1 µM | 35.2 ± 1.2% | 25.9 ± 1.2% | 21.5 ± 3% | 5.2 ± 1% | 34.4 ± 1.4% | 19.6 ± 0.3% | 21.7 ± 4.6% | 18.8 ± 1.9% | 45.2 ± 2.9%
3 | > 100 µM | 120 to 122 °C | 511.2 ± 3.2 nM | 915.2 ± 4.3 nM | > 100 µM |  | COc1ccc(C2CC(c3ccc(Cl)cc3Cl)=NN2c2nc(-c3ccccc3)cs2)cc1OC (stereo not shown) [Compound 7c, 2-(3-(2,4-Dichlorophenyl)-5-(3,4-dimethoxyphenyl)-4,5-dihydro-1H-pyrazol-1-yl)-4-phenylthiazole] | > 100 µM | 16.2 ± 0.3% | 9.2 ± 0.9% | 5.2 ± 0.5% | 3.1 ± 0.6% | 17.1 ± 2.7% | 7.3 ± 1.2% | 4.3 ± 0.7% | 4.9 ± 0.8% | 8.9 ± 1.1%
4 | 29.1 ± 3.5 µM | 158 to 159 °C | 132.9 ± 1.2 nM | 186 ± 2.3 nM | 20.2 ± 2 µM |  | COc1ccc(C2CC(c3ccc(Cl)cc3Cl)=NN2c2nc(-c3ccc(Cl)cc3)cs2)cc1OC (stereo not shown) [Compound 7d, 4-(4-Chlorophenyl)-2-(3-(2,4-dichlorophenyl)-5-(3,4-dimethoxyphenyl)-4,5-dihydro-1H-pyrazol-1-yl)thiazole] | 40.1 ± 2.7 µM | 34.8 ± 2.4% | 2.2 ± 0.6% | 22 ± 1.6% | 18 ± 2.7% | 5.1 ± 1% | 17.3 ± 0.6% | 25.1 ± 2% | 0.7% | 31.2 ± 1.4%
5 | > 100 µM | 205 to 207 °C | 274 ± 2.3 nM | 450 ± 8.3 nM | 49.1 ± 3.2 µM |  | COc1ccc(C2CC(c3ccc(Cl)cc3Cl)=NN2c2nc(C)c(C(C)=O)s2)cc1 (stereo not shown) [Compound 10a, 1-(2-(3-(2,4-Dichlorophenyl)-5-(4-methoxyphenyl)-4,5-dihydro-1H-pyrazol-1-yl)-4-methylthiazol-5-yl)ethan-1-one] | > 100 µM | 6.3 ± 0.7% | 13.6 ± 2.9% | 12.2 ± 1.9% | 9.4 ± 1% | 28 ± 4.3% | 24.3 ± 2.5% | 22.2 ± 1.6% | 19 ± 2.6% | 32.3 ± 2.2%
6 | 45.2 ± 2.3 µM | 195 to 197 °C | 130.7 ± 1.1 nM | 102 ± 4.3 nM | 23.5 ± 1.3 µM |  | COc1ccc(C2CC(c3ccc(Cl)cc3Cl)=NN2c2nc(C)c(C(=O)Nc3ccccc3)s2)cc1 (stereo not shown) [Compound 10c, 2-(3-(2,4-Dichlorophenyl)-5-(4-methoxyphenyl)-4,5-dihydro-1H-pyrazol-1-yl)-4-methyl-N-phenylthiazole-5-carboxamide] | > 100 µM | 8.7 ± 0.1% | 2.5 ± 0.8% | 11.2 ± 1% | 22.3 ± 0.8% | 11.9 ± 1.1% | 18.3 ± 1.6% | 9.1 ± 1% | 7.9 ± 1.1% | 28.9 ± 2%
7 | > 100 µM | 168 to 170 °C | 973 ± 2 nM | 1151 ± 4.3 nM | > 100 µM | 94.4 ± 5.5 µM | COc1ccc(C2CC(c3ccc(Cl)cc3Cl)=NN2c2nc(C)c(N=Nc3ccccc3)s2)cc1 (stereo not shown) [Compound 13a, 2-(3-(2,4-Dichlorophenyl)-5-(4-methoxyphenyl)-4,5-dihydro-1H-pyrazol-1-yl)-4-methyl-5-(phenyldiazenyl)thiazole] | > 100 µM | 22.2 ± 0.9% | 17.8 ± 1% | 2.2 ± 0.2% | 10.3 ± 1.1% | 15.8 ± 2.2% | 15.3 ± 1.4% | 4.1 ± 0.9% | 19.5 ± 1.4% | 11 ± 0.8%
8 | 24.2 ± 1.8 µM | 170 to 171 °C | 179 nM | 214 ± 4 nM | 59.1 ± 3.2 µM |  | COc1ccc(C2CC(c3ccc(Cl)cc3Cl)=NN2c2nc(C)c(N=Nc3ccc(C)cc3)s2)cc1 (stereo not shown) [Compound 13b, 2-(3-(2,4-Dichlorophenyl)-5-(4-methoxyphenyl)-4,5-dihydro-1H-pyrazol-1-yl)-4-methyl-5-(p-tolyldiazenyl)thiazole] | > 100 µM | 23.3 ± 2.4% | 3.4 ± 0.5% | 11 ± 0.6% | 5.1 ± 0.3% | 0.08% | 8.3 ± 0.9% | 7.1 ± 0.2% | 0.8 ± 0.2% | 16.2 ± 1.3%
9 | 3.9 ± 0.8 µM |  |  |  | 3.4 ± 1 µM |  | COc1cc2c(Nc3ccc(Br)cc3F)ncnc2cc1OCC1CCN(C)CC1 [Vandetanib, reference compound] | 8.6 ± 0.4 µM |  |  |  |  |  |  |  |  | 
